# Data reported in patent publication US12059408B2, “Treatment of cognitive impairment associated with schizophrenia” (Boehringer Ingelheim International GmbH, priority 2020, dated 2024).
# System: patients with schizophrenia
# Assay: Phase II CIAS trial: cognition by MCCB, compound I add-on to antipsychotics vs placebo
# Format: in vivo, human
# Set-up: Change from baseline in MCCB overall composite score at Week 12, adjusted mean / Change from baseline in MCCB overall composite score at Week 12, comparison vs. placebo, adjusted mean: scale not given here
# Conditions: for Change from baseline in MCCB overall composite score at Week 12, adjusted mean: 12 weeks; for Change from baseline in MCCB overall composite score at Week 12, adjusted mean / Change from baseline in MCCB overall composite score at Week 12, comparison vs. placebo, adjusted mean: MMRM; for Change from baseline in MCCB overall composite score at Week 12, adjusted mean / Change from baseline in MCCB overall composite score at Week 12, comparison vs. placebo, adjusted mean / Proportion of responders, change from baseline in MCCB overall composite score at Week 12 / Responders, comparison vs. placebo, odds ratio: FAS; for Responders, comparison vs. placebo, odds ratio: logistic regression
# Description: This trial was designed to investigate whether compound I as an add-on therapy to antipsychotics (except clozapine) can improve cognitive symptoms in patients with schizophrenia.
# The primary endpoint was cognition assessed using the Measurement and Treatment Research to Improve Cognition in Schizophrenia (MATRICS) consensus cognitive battery (MCCB).
# • 1) Men or women who are 18-50 years (inclusive) of age at time of consent with established schizophrenia (as per DSM-5) with the following clinical features: • Outpatient, with no hospitalization for worsening of schizophrenia within 3 months (hospitalization for social management and/or day hospital programs within this time are acceptable) prior to randomization • Medically stable over the prior 4 weeks and psychiatrically stable without symptom exacerbation within 3 months prior to randomization • patients who have no more than a “moderate severe” rating on the Positive and Negative Symptom Scale (PANSS) positive items P1, P3-P7 (item score≤5) and no more than a “moderate” rating on the PANSS positive item P2 (item score≤4) • 2) Current antipsychotic and concomitant psychotropic medications as assessed at Visit 1 must meet the criteria below: • a. patients may have up to 2 antipsychotics (typical and/or atypical) • b. patients must be maintained on current typical and/or atypical antipsychotics other than Clozapine and on current dose for at least 4 weeks prior to randomization and/or maintained on current long acting injectable antipsychotics and current dose for at least 3 months prior to randomization • c. patients must be maintained on current concomitant psychotropic medications, anticholinergics, antiepileptics and/or lithium for at least 3 months prior to randomization and on current dose for at least 4 weeks prior to randomization.
# Patients eligible for the trial were randomly assigned, in a 1:1:1:1:2 ratio to either • 2 mg compound I • 5 mg compound I • 10 mg compound I • 25 mg compound I • Placebo
# An MCPMod approach combined with MMRM was used to establish the proof of concept in this trial.
# The null hypothesis was that there was a flat dose-response pattern across placebo and any dose of compound I within the tested dose range on the mean change in the MCCB overall composite score from baseline to Week 12. The alternative hypothesis was that there was a non-flat dose-response pattern indicating a benefit of compound I versus placebo.
# Patients in the FAS were analysed according to the ITT principle, i.e. according to their randomised trial medication. The FAS was used for analyses of efficacy.
# The primary endpoint of this trial was the change from baseline in cognitive function as measured by the MCCB overall composite score after 12 weeks of treatment. The primary efficacy analysis was based on the full analysis set (FAS).
# Model includes fixed, categorical factors of planned treatment, analysis visit, and planned treatment by analysis visit interaction, as well as the continuous fixed covariate of baseline value and baseline value by analysis visit interaction. Subject is treated as random effect. Unstructured covariance structure was used to fit the mixed model. Kenward-Roger was used to model degrees of freedom.
compound,measurement,setting,value
"C[C@@H](Oc1ccc(S(C)(=O)=O)cc1C(=O)N1C[C@@H]2C[C@]2(c2cc(C(F)(F)F)on2)C1)C(F)(F)F [compound I, [5-(methylsulfonyl)-2-{[(2R)-1,1,1-trifluoropropan-2-yl]oxy}phenyl] {(1R,5R)-1-[5-(trifluoromethyl)-1,2-oxazol-3-yl]-3-azabicyclo[3.1.0]hex-3-yl}methanone]","Effect on cognition (dose considerations, Phase II trial)",2 mg,ineffective
same,"Change from baseline in MCCB overall composite score at Week 12, adjusted mean",2 mg once daily oral,1.784
same,"Change from baseline in MCCB overall composite score at Week 12, comparison vs. placebo, adjusted mean",2 mg once daily,0.280
same,"Effect on cognition (dose considerations, Phase II trial)",5 mg,numerically improved cognition in Asian subpopulation
same,"Change from baseline in MCCB overall composite score at Week 12, adjusted mean",5 mg once daily oral,1.641
same,"Change from baseline in MCCB overall composite score at Week 12, comparison vs. placebo, adjusted mean",5 mg once daily,0.137
same,"Effect on cognition (dose considerations, Phase II trial), primary endpoint",10 mg,separated best from placebo
same,Change from baseline in MCCB neurocognitive composite score at Week 12,10 mg and 25 mg treatment groups compared with placebo,A larger change from baseline was observed
same,"Change from baseline in MCCB overall composite score at Week 12, adjusted mean",10 mg once daily oral,3.486
same,"Change from baseline in MCCB overall composite score at Week 12, comparison vs. placebo, adjusted mean",10 mg once daily,1.982
same,"Effect on cognition (dose considerations, Phase II trial)",25 mg,efficacy less consistent across analyses than the 10 mg dose
same,"Change from baseline in MCCB overall composite score at Week 12, adjusted mean",25 mg once daily oral,3.234
same,"Change from baseline in MCCB overall composite score at Week 12, comparison vs. placebo, adjusted mean",25 mg once daily,1.730
same,"Cognitive performance compared to placebo, phase 2 clinical trial","certain doses, patients having schizophrenia",improves cognitive performance
same,Dose-response for change from baseline at Week 12 in MCCB overall composite T-score,doses of 2 to 25 mg,non-flat dose-response curve
same,"Proportion of responders, change from baseline in MCCB overall composite score at Week 12","responder ≥3, 2 mg",46.3%
same,"Responders, comparison vs. placebo, odds ratio","responder ≥3, 2 mg",1.184
same,"Proportion of responders, change from baseline in MCCB overall composite score at Week 12","responder ≥3, 5 mg",42.3%
same,"Responders, comparison vs. placebo, odds ratio","responder ≥3, 5 mg",1.006
same,"Proportion of responders, change from baseline in MCCB overall composite score at Week 12","responder ≥3, 10 mg",61.5%
same,"Responders, comparison vs. placebo, odds ratio","responder ≥3, 10 mg",2.200
same,"Proportion of responders, change from baseline in MCCB overall composite score at Week 12","responder ≥3, 25 mg",47.4%
same,"Responders, comparison vs. placebo, odds ratio","responder ≥3, 25 mg",1.241
same,"Proportion of responders, change from baseline in MCCB overall composite score at Week 12","responder ≥4, 2 mg",40.3%
same,"Responders, comparison vs. placebo, odds ratio","responder ≥4, 2 mg",1.298
same,"Proportion of responders, change from baseline in MCCB overall composite score at Week 12","responder ≥4, 5 mg",38.0%
same,"Responders, comparison vs. placebo, odds ratio","responder ≥4, 5 mg",1.180
same,"Proportion of responders, change from baseline in MCCB overall composite score at Week 12","responder ≥4, 10 mg",52.6%
same,"Responders, comparison vs. placebo, odds ratio","responder ≥4, 10 mg",2.131
same,"Proportion of responders, change from baseline in MCCB overall composite score at Week 12","responder ≥4, 25 mg",41.0%
same,"Responders, comparison vs. placebo, odds ratio","responder ≥4, 25 mg",1.338
same,"Proportion of responders, change from baseline in MCCB overall composite score at Week 12","responder ≥5, 2 mg",35.8%
same,"Responders, comparison vs. placebo, odds ratio","responder ≥5, 2 mg",1.370
same,"Proportion of responders, change from baseline in MCCB overall composite score at Week 12","responder ≥5, 5 mg",32.4%
same,"Responders, comparison vs. placebo, odds ratio","responder ≥5, 5 mg",1.176
same,"Proportion of responders, change from baseline in MCCB overall composite score at Week 12","responder ≥5, 10 mg",44.9%
same,"Responders, comparison vs. placebo, odds ratio","responder ≥5, 10 mg",1.998
same,"Proportion of responders, change from baseline in MCCB overall composite score at Week 12","responder ≥5, 25 mg",39.7%
same,"Responders, comparison vs. placebo, odds ratio","responder ≥5, 25 mg",1.619
